The test system of assay [1] is 2E9 MAb. Briefly: Indirect competitive ELISA measuring equilibrium association constant and association/dissociation rates of MAb-hapten complexes. Format: binding, mouse. The note with it: for KA times higher than KA measured for the 4-OHE2-1-N3Ade adduct: comparator 4-OHE2-1-N3Ade; for KA higher by a factor than that obtained for NAcCys: comparator NAcCys; for Association constant, KA / Association rate, kon / Dissociation rate, koff: in the presence of 2E9 MAb, indirect competitive ELISA; for Association constant, KA: equilibrium; for 1/koff: dissociation time; for KA times smaller than the KA obtained for 4-OHE1-2-NAcCys: comparator 4-OHE1-2-NAcCys. As to the method:
The equilibrium constant and the kinetic off- and on-rates for the analyte and the reporter molecule of interest must be known. The equilibrium association constants (KA) and association (kon)/dissociation (koff) rates for 4-OHE2-2-NAcCys and 4-OHE2-2-NAcCys-SAMSA conjugates are given in Table I, which also provides information on other closely related analytes, such as 4-OHE2, NAcCys, and 4-OHE2-1-N3Ade adduct. All values listed in Table I were determined using an indirect competitive ELISA. The value of KA for 4-OHE2-2-NAcCys-SAMSA was confirmed by an equilibrium dialysis method.
An ELISA was used to measure the association/dissociation rate constants of MAb-hapten (i.e., MAb-4-OHE1-2-NAcCys) and/or association/dissociation rate constants of related analytes. The MAb and suitable hapten(s) were mixed in solution to initiate the equilibrium reaction. At different time intervals, the amount of the free MAb in the reaction mixture was determined by an indirect ELISA. The association rate constants for 4-OHE1-2-NAcCys, 4-OHE1, NAcCys, and 4-OHE1-1-N3Ade were estimated by nonlinear regression against an equation introduced from the derivation of the mass balance of MAb-antigen/related analyte interaction (Zhuang et al., J Biosci. Bioeng. 92, 330-336 (2001); Foote et al., Proc. Natl. Acad. Sci. USA 92, 1254-1256 (1995); Goldbaum et al., J Immunol. 162, 6040-6045 (1999); Northrup et al., Proc. Natl. Acad. Sci. USA 89, 3338-3342 (1992)).
To determine the bound fraction of the antibody by ELISA, 3 rows and 8 columns of the microtiter plate were incubated with sufficient concentration of antigen to saturate the wells. After washing the plate with PBS 3 times, 4 rows of the plate including 3 rows coated with the antigen were blocked with 1% non-fat dried milk, 0.01% Triton-X100 in PBS for 3 hrs. Then the plate was washed with PBS with Triton-X100 (0.01%) 3 times. Equal volumes (160 μL) of the antigen (or related analyte) and PBS were mixed, and the mixture was put into the first well of the row that was blocked but not coated with the antigen (non-coated row).
The average absorbance of this column (Ab) measured in the last step of the ELISA corresponds to the blank. Equal volumes (160 μL) of the antibody solution and PBS were mixed, and the mixture was put into the last (8th) well of the non-coated row. The average absorbance of this column (Ao) corresponds to the total concentration of the antibody. Equal volumes of the antibody solution and antigen (or related analyte) solution were mixed quickly, and the mixture was immediately put into the second well of the non-coated row. At appropriate time intervals (after 10, 20, 23, 26 and 28 min), a new mixture of the antibody and hapten (or related analyte) solution were mixed quickly, immediately put into the wells of the non-coated row from the […]. The average absorbance of these columns (At) corresponds to the concentration of the free antibody at t=30, 20, 10, 7, 4 and 2 min for the […], respectively. Two min after the 7th well was filled with the mixture, using an eight-channel Pipetman, the mixtures on the row were quickly dispensed into the 3 rows that were coated with the antigen (or related analyte, 50 μL each). After 1 min the mixture was discarded and the plate was washed with PBS with Triton-X100 (0.01%) 3 times. The secondary antibody solution (HRP-conjugated) was added to the plate (50 μL), and the plate was incubated at 37° C. for 1 h. After washing with PBS and Triton-X100 (0.01%) 3 times, the substrate was added to the plate (50 μL). After incubation for 10 min at room temperature, the absorbance at 405 nm was measured.
Association constants KA for 4-OHE1 and NAcCys were also determined and are 2.5·10^5 and 2.1·10^6 M^−1, respectively. […] When the time required for the equilibrium reaction between the antigen and the antibody is shorter, one can detect or quantify the hapten faster. […]
A general note: In an ELISA, binding on a coated surface is turned into a signal by an enzyme label.

Assay [2] has as its system 2E9 MAb. The assay can be described thus: Competitive ELISA for 4-OHE1-2-NAcCys: inhibition of 2E9 MAb binding to immobilized antigen. Further details: species or system mouse. The note with it: for IC50: wells coated with OA-4-OHE1(E2)-2-NAcCys-16a,β-MCC, regression analysis, read-out: I50 (quantity producing 50% inhibition of MAb binding in the ELISA). As to the method:
FIG. 5 is a diagram depicting inhibition profiles obtained for 4-OHE1-2-NAcCys (curve 1); NAcCys (curve 2), 4-OHE1(E2) (curve 3), and 4-OHE1-1-N3Ade (curve 4) using the 2E9 MAb in the competitive ELISA assay. Competitor-mediated reduction of MAb binding was expressed as % inhibition vs. untreated MAb and then plotted as a function of log quantity of competitor per well of the ELISA plate.
Wells were coated with OA-40HE1(E2)-2-NAcCys-16a,β-MCC, 500 ng/mL, 50 μL/well overnight, and blocked with 1% non-fat dried milk, 0.01% Triton-X100 in PBS for 2 h at 37° C. Competition curves were generated as described below. MAb and competitor molecules 4-OHE1(E2)-2-NAcCys (1), NAcCys (2), 4-OHE1(E2) (3), and 4-OHE1(E2)-1-N3Ade (4) were added to the wells at the same time and allowed to react with immobilized antigen for one hour before secondary antibody was added. The plates were washed with PBS with Triton-X100 (0.01%). Secondary antibody labeled with horseradish peroxidase (HRP) was used according to manufacturer's (BRL, Inc.) recommendations and incubated at 37° C. for 1 h. Plates were washed again, 2,2′-azino-bis(3-ethylbenzthiazoline-6-sulfonic acid) (ABTS) was added, and the plates were read at 405 nm on a BioRad-EL800 plate reader. The specificity of the 2E9 MAb raised against 4-OHE1(E2)-2-NAcCys was confirmed, and cross-reactivity to a number of related compounds was established.
The results are shown in FIG. 5, where the competitor-mediated reduction of MAb binding is expressed as % inhibition versus untreated MAb and plotted as a function of the concentration of competitor in the wells of the ELISA plate. Inhibition curves were developed for several analytes of interest; the I50's (quantity producing 50% inhibition of MAb binding in the ELISA) of these analytes were determined by regression analysis. […] For example, the I50 of 4-OHE-1-N3Ade (I50=1.5·10^−5M) was about 2700 times higher than the I50 of the 4-OHE1-2-NAcCys (I50=5.6·10^−9M).

The test system of assay [3] is MAb against 4-OHE2-1-N3Ade. Briefly: Association constant of the MAb developed against 4-OHE2-1-N3Ade. Format: binding.

With 4-OHE1(E2)-2-NAcCys, in the assay with 2E9 MAb [1] (2E9 MAb), the “KA times higher than KA measured for the 4-OHE2-1-N3Ade adduct” value was “about 2,700” and the “KA higher by a factor than that obtained for NAcCys” value is reported as 100. The “Association constant, KA” value in the assay on 2E9 MAb [1] amounted to 1.8e+08 M⁻¹.
With “4-OHE2-2-NAcCys-SAMSA [4-OHE2-NAcCys-SAMSA]”, the 1/koff with 2E9 MAb [1] (2E9 MAb) is 185 s. Also, in the assay with 2E9 MAb [1], the “Association rate, kon” value came to 270000 M⁻¹ s⁻¹; the “Dissociation rate, koff” value was determined as 0.0054 s⁻¹; the “Association constant, KA” value amounted to 5e+07 M⁻¹.
In the case of `C[C@]12CC[C@@H]3c4c(-n5cnc(=N)c6[nH]cnc65)cc(O)c(O)c4CC[C@H]3[C@@H]1CCC2=O` [4-OHE1-1-N3Ade], the “I50 times higher than the I50 of 4-OHE1-2-NAcCys” value in the assay on 2E9 MAb [2] (comparator 4-OHE1-2-NAcCys) was “about 2700”. Also, the IC50 on 2E9 MAb [2] is 15 µM. Also, the “KA times smaller than the KA obtained for 4-OHE1-2-NAcCys” value (from here on “KA times smaller than the KA obtained”) with 2E9 MAb [1] (2E9 MAb) turned out to be 2700. Moreover, the “Association constant, KA” value in the assay with 2E9 MAb [1] (listed as 4-OHE1-N3Ade) worked out at 67000 M⁻¹.
Consider `CC(=O)NC(CSc1cc2c(c(O)c1O)CCC1C2CCC2(C)C(=O)CCC12)C(=O)O` (stereo not drawn) [4-OHE1-2-NAcCys], for which the IC50 at 2E9 MAb [2] amounted to 0.0056 µM.
For `C[C@]12CC[C@@H]3c4ccc(O)c(O)c4CC[C@H]3[C@@H]1CCC2=O` [4-OHE1], the “KA times smaller than the KA obtained” value with 2E9 MAb [1] (2E9 MAb) was “about 720”. Further, in the assay on 2E9 MAb [1], the “Association constant, KA” value turned out to be 250000 M⁻¹.
With `C[C@]12CC[C@@H]3c4c(-n5cnc(=N)c6[nH]cnc65)cc(O)c(O)c4CC[C@H]3[C@@H]1CC[C@@H]2O` [4-OHE2-1-N3Ade], in assay [3], the KA amounted to 2e+08 M⁻¹. The compound further gave a 1/koff in the assay on 2E9 MAb [1] (2E9 MAb) of 10 s. In the assay with 2E9 MAb [1], the “Association rate, kon” value was 6500 M⁻¹ s⁻¹; the “Dissociation rate, koff” value is 0.097 s⁻¹; the “Association constant, KA” value is 67000 M⁻¹.
`CC(=O)N[C@@H](CSc1cc2c(c(O)c1O)CC[C@@H]1[C@@H]2CC[C@]2(C)[C@@H](O)CC[C@@H]12)C(=O)O` [4-OHE2-NAcCys, 4-OHE2-2-NAcCys]: in the assay with 2E9 MAb [1] (2E9 MAb), the “dissociation time 1/koff” value was approximately 6.5 min, the “KA times higher than KA measured for the 4-OHE2-1-N3Ade adduct” value is listed as “about 2,700”, the “KA higher by a factor than that obtained for NAcCys” value is given as 100 and the 1/koff came to 391 s. Besides, in the assay with 2E9 MAb [1], the “Association rate, kon” value was found to be 460000 M⁻¹ s⁻¹; the “Dissociation rate, koff” value was determined as 0.0026 s⁻¹; the “Association constant, KA” value was found to be 1.8e+08 M⁻¹. The “Association constant, KA” value with 2E9 MAb [1] (listed as 4-OHE2-2-NAcCys) was 1.8e+08 M⁻¹.
Consider `C[C@]12CC[C@@H]3c4ccc(O)c(O)c4CC[C@H]3[C@@H]1CC[C@@H]2O` [4-OHE2], for which, in the assay with 2E9 MAb [1] (2E9 MAb), the 1/koff is 17 s. Besides, in the assay on 2E9 MAb [1], the “Association rate, kon” value is 15000 M⁻¹ s⁻¹; the “Dissociation rate, koff” value was found to be 0.062 s⁻¹; the “Association constant, KA” value came to 250000 M⁻¹.
Take `CC(=O)N[C@@H](CS)C(=O)O` [NAcCys, N-acetylcysteine]: in the assay on 2E9 MAb [1] (2E9 MAb), the “KA times smaller than the KA obtained” value is on record as approximately 86 and the 1/koff was 27 s. Besides, in the assay with 2E9 MAb [1], the “Association rate, kon” value was 77000 M⁻¹ s⁻¹; the “Dissociation rate, koff” value stood at 0.037 s⁻¹; the “Association constant, KA” value is 2.1e+06 M⁻¹.

The values are drawn from patent publication US20070148712A1, “Breast cancer and prostate cancer assessment” (Iowa State University Research Foundation, Inc., priority 2005, published 2007).
